Laboratory results: US10898469B2, “Imidazolylamide derivative” (Sumitomo Dainippon Pharma Co., Ltd., priority 2016, dated 2021)
Read-outs that look alike come from different tables or passages of the source.

Columns and labels:
Type in all cases: cell-based, human
HCT-116 cells [1] = assay: Inhibition test for sphere-forming ability of cancer cells (Test Example 1), HCT-116; settings: for IC50 / (100%-inhibition rate of cell proliferation) at 1 μmol/L, HCT-116 / viability at 1 µM: HCT-116 cells; for IC50: concentration for 50% inhibition of cell proliferation, read-out: IC50 (μmol/L) HCT-116 (Sphere IC50 value); for inhibitory effect on the sphere-forming ability of cancer cells: Test Example 1, summary in words, cell line not given (HCT-116, HT-29, FaDu tested); for (100%-inhibition rate of cell proliferation) at 1 μmol/L, HCT-116 / viability at 1 µM: value with %, 1 μmol/L; for viability at 1 µM: read-out: (100%-inhibition rate of cell proliferation) at 1 μmol/L
Summary of the method: (§1)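 Sphere formation, non-adherent, serum-free: 350-800 cells/well, DMEM/F12 + 2% B27, 20 ng/mL EGF, 10 ng/mL bFGF, 5 μg/mL insulin. Compound in 0.1% DMSO final, 4 d. CellTiter-Glo luminescence; IC50 (μmol/L) for 50% inhibition of proliferation.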

HT-29 cells = assay: Inhibition test for sphere-forming ability of cancer cells (Test Example 1), HT-29; settings: for IC50: concentration for 50% inhibition of cell proliferation, read-out: IC50 (μmol/L) HT-29 (Sphere IC50 value); for (100%-inhibition rate of cell proliferation) at 1 μmol/L, HT-29: value with %; for viability at 1 µM: read-out: (100%-inhibition rate of cell proliferation) at 1 μmol/L, 1 μmol/L, value with %
Summary of the method: as §1

FaDu cells = assay: Inhibition test for sphere-forming ability of cancer cells (Test Example 1), FaDu; settings: for IC50: concentration for 50% inhibition of cell proliferation, read-out: IC50 (μmol/L) FaDu (Sphere IC50 value); for (100%-inhibition rate of cell proliferation) at 1 μmol/L, FaDu: value with %; for viability at 1 µM: read-out: (100%-inhibition rate of cell proliferation) at 1 μmol/L, 1 μmol/L, value with %
Summary of the method: as §1

HCT-116 cells [2] = assay: Inhibition test for sphere-forming ability of cancer cells in the presence of BSA (Test Example 2), HCT-116; settings: for IC50: HCT-116 cells, in the presence of 5% BSA, cultured 4 days; for inhibitory effect on the sphere-forming ability of cancer cells: Test Example 2, in the presence of 5% BSA, summary in words, cell line not given (HCT-116, HT-29, FaDu tested)
Procedure: Human colorectal cancer-derived HCT-116 cells, human colon-adenocarcinoma-derived HT-29 cells, and human pharyngeal cancer-derived FaDu cells were available from American Type Culture Collection (ATCC). HCT-116 cells and HT-29 cells were cultured at 37° C. under 5% CO2 using the McCoy's 5a medium containing 10% fetal bovine serum (FBS) and 1% penicillin/streptomycin, and FaDu cells were cultured at 37° C. under 5% CO2 using the MEM medium containing 10% FBS, 1% non-essential amino acid, 1% sodium pyruvate, 5% bovine serum albumin (BSA), and 1% penicillin/streptomycin. HCT-116 cells, HT-29 cells, and FaDu cells were seeded in a 384 Well Black Clear Bottom Ultra-Low Attachment Microplate (Corning Cat. No. 3827) in an amount of 350-800 cells/well using the DMEM/F12 medium containing 2% B27 supplement (GIBCO), 20 ng/mL epidermal growth factor (EGF) (peprotech), 10 ng/mL basic fibroblast growth factor (bFGF) (peprotech), 5 μg/mL insulin (Sigma), 5% bovine serum albumin (BSA), and 1% penicillin/streptomycin. Each test compound was added into each well to adjust the final concentration of DMSO to 0.1%, and the cells were cultured for 4 days. The number of viable cells in each well was then measured with CellTiter-Glo® Luminescent Cell Viability Assay (Promega) to calculate the concentration of each test compound for 50% inhibition of cell proliferation (Sphere IC50 value; μmol/L).
The experiment of Test Example 2 was performed for each compound of each Example.
The concentration of each test compound for 50% inhibition of cell proliferation (Sphere IC50 value; μmol/L) is shown in the following Table.

CS(=O)(=O)Nc1ccc(/C=C/C(=O)Nc2cn(Cc3cccc(Cl)c3)cn2)cc1 [Example 4, (E)-N-(1-(3-Chlorobenzyl)-1H-imidazol-4-yl)-3-(4-(methylsulfonamide)phenyl)acrylamide]
IC50 (HCT-116 cells [1]; Homo sapiens): 5.79 µmol/L | IC50 (HT-29 cells; Homo sapiens): 0.69 µmol/L | IC50 (FaDu cells; Homo sapiens): 0.67 µmol/L | IC50 (HCT-116 cells [2]; Homo sapiens, HCT-116, 96 h): 6400 nM

CC(=O)Nc1ccc(/C=C/C(=O)Nc2cn(Cc3cccc(Cl)c3)cn2)cc1 [Example 9, (2E)-3-[4-(acetylamino)phenyl]-N-[1-(3-chlorobenzyl)-1H-imidazol-4-yl]prop-2-enamide]
IC50 (HCT-116 cells [1]; Homo sapiens): 0.22 µmol/L | inhibitory effect on the sphere-forming ability of cancer cells (HCT-116 cells [1]): particularly potent inhibitory effect | IC50 (HT-29 cells; Homo sapiens): 0.03 µmol/L | IC50 (FaDu cells; Homo sapiens): 0.03 µmol/L | IC50 (HCT-116 cells [2]; Homo sapiens, HCT-116, 96 h): 910 nM

N#Cc1ccc(/C=C/C(=O)Nc2cn(Cc3cccc(Cl)c3)cn2)cc1 [Example 22]
IC50 (HCT-116 cells [1]; Homo sapiens): 0.08 µmol/L | inhibitory effect on the sphere-forming ability of cancer cells (HCT-116 cells [1]): particularly potent inhibitory effect | IC50 (HT-29 cells; Homo sapiens): < 0.01 µmol/L | IC50 (FaDu cells; Homo sapiens): 0.06 µmol/L | IC50 (HCT-116 cells [2]; Homo sapiens, HCT-116, 96 h): 640 nM | inhibitory effect on the sphere-forming ability of cancer cells (HCT-116 cells [2]): particularly potent inhibitory effect

COc1ccc(/C=C/C(=O)Nc2cn(Cc3cccc(Cl)c3)cn2)cc1O [Example 23, (E)-N-(1-(3-Chlorobenzyl)-1H-imidazol-4-yl)-3-(3-hydroxy-4-methoxyphenyl)acrylamide]
IC50 (HCT-116 cells [1]; Homo sapiens): 0.61 µmol/L | IC50 (HT-29 cells; Homo sapiens): 0.47 µmol/L | IC50 (FaDu cells; Homo sapiens): < 0.01 µmol/L | IC50 (HCT-116 cells [2]; Homo sapiens, HCT-116, 96 h): 370 nM | inhibitory effect on the sphere-forming ability of cancer cells (HCT-116 cells [2]): particularly potent inhibitory effect

COc1ccc(/C=C/C(=O)Nc2cn(Cc3cccc(C(F)(F)F)c3)cn2)cc1O [Example 31, (E)-3-(3-Hydroxy-4-methoxyphenyl)-N-(1-(3-(trifluoromethyl)benzyl)-1H-imidazol-4-yl)acrylamide]
IC50 (HCT-116 cells [1]; Homo sapiens): 0.84 µmol/L | IC50 (HT-29 cells; Homo sapiens): 0.65 µmol/L | IC50 (FaDu cells; Homo sapiens): < 0.01 µmol/L | IC50 (HCT-116 cells [2]; Homo sapiens, HCT-116, 96 h): 90 nM | inhibitory effect on the sphere-forming ability of cancer cells (HCT-116 cells [2]): particularly potent inhibitory effect

COc1ccc(C(=O)Nc2cn(Cc3ccc(Cl)cc3)cn2)cc1OC [Example 158]
IC50 (HCT-116 cells [1]): 0.57 µmol/L | IC50 (FaDu cells): 0.5 µmol/L | IC50 (HCT-116 cells [2]): 4220 nM

COc1ccc(C(=O)Nc2cn(Cc3cc(F)cc(Cl)c3)cn2)cc1OC [Example 159]
IC50 (HCT-116 cells [1]): 0.06 µmol/L | inhibitory effect on the sphere-forming ability of cancer cells (HCT-116 cells [1]): particularly potent inhibitory effect | IC50 (FaDu cells): 0.07 µmol/L | IC50 (HCT-116 cells [2]): 610 nM

COc1ccc(C(=O)Nc2cn(Cc3ccc(F)c(Cl)c3)cn2)cc1OC [Example 160]
IC50 (HCT-116 cells [1]): 0.07 µmol/L | inhibitory effect on the sphere-forming ability of cancer cells (HCT-116 cells [1]): particularly potent inhibitory effect | IC50 (FaDu cells): 0.07 µmol/L | IC50 (HCT-116 cells [2]): 610 nM

COc1ccc(C(=O)Nc2cn(Cc3ccc(F)c(C(F)(F)F)c3)cn2)cc1OC [Example 161]
IC50 (HCT-116 cells [1]): 0.04 µmol/L | inhibitory effect on the sphere-forming ability of cancer cells (HCT-116 cells [1]): particularly potent inhibitory effect | IC50 (FaDu cells): < 0.01 µmol/L | IC50 (HCT-116 cells [2]): 410 nM

COc1ccc(C(=O)Nc2cn(Cc3cc(F)cc(C(F)(F)F)c3)cn2)cc1OC [Example 162]
IC50 (HCT-116 cells [1]): 0.06 µmol/L | inhibitory effect on the sphere-forming ability of cancer cells (HCT-116 cells [1]): particularly potent inhibitory effect | IC50 (FaDu cells): 0.06 µmol/L | IC50 (HCT-116 cells [2]): 510 nM

O=C(Nc1cn(Cc2cc(F)c(F)c(F)c2)cn1)c1ccc(CO)cc1 [Example 175]
IC50 (HCT-116 cells [1]): 0.29 µmol/L | IC50 (FaDu cells): 0.22 µmol/L | IC50 (HCT-116 cells [2]): 770 nM

CCOc1ccc(C(=O)Nc2cn(Cc3c(F)ccc(C)c3F)cn2)cn1 [Example 221]
IC50 (HCT-116 cells [1]): 0.51 µmol/L | IC50 (HT-29 cells): 0.59 µmol/L | IC50 (FaDu cells): 0.89 µmol/L

O=C(Nc1cn(Cc2cccc(OC(F)(F)F)c2)cn1)c1ccc(OCC(F)(F)F)nc1 [Example 222]
IC50 (HCT-116 cells [1]): > 10 µmol/L | IC50 (HT-29 cells): 4.81 µmol/L | IC50 (FaDu cells): 9.74 µmol/L

Cc1ccc(F)c(Cn2cnc(NC(=O)c3ccc(OCC(F)(F)F)nc3)c2)c1F [Example 223]
IC50 (HCT-116 cells [1]): 0.76 µmol/L | IC50 (HT-29 cells): 0.65 µmol/L | IC50 (FaDu cells): 0.81 µmol/L

Nc1ccc(C(=O)Nc2cn(Cc3cccc(Cl)c3)cn2)cn1 [Example 224]
IC50 (HCT-116 cells [1]): 6.71 µmol/L | IC50 (HT-29 cells): 5.51 µmol/L | IC50 (FaDu cells): 5.44 µmol/L

O=C(Nc1cn(Cc2cccc(C(F)(F)F)c2)cn1)c1ccc(F)nc1 [Example 226]
(100%-inhibition rate of cell proliferation) at 1 μmol/L, HCT-116 (HCT-116 cells [1]): 45.7% | (100%-inhibition rate of cell proliferation) at 1 μmol/L, HT-29 (HT-29 cells): 91.7% | (100%-inhibition rate of cell proliferation) at 1 μmol/L, FaDu (FaDu cells): 87.9%

Cn1cc(C(=O)Nc2cn(Cc3cccc(Cl)c3)cn2)ccc1=O [Example 243]
viability at 1 µM (HCT-116 cells [1]; Homo sapiens): 23.8% | viability at 1 µM (HT-29 cells; Homo sapiens): 19.5% | viability at 1 µM (FaDu cells; Homo sapiens): 29%

COCCOc1ccc(C(=O)Nc2cn(Cc3cccc(Cl)c3)cn2)cn1 [Example 244, N-[1-(3-Chlorobenzyl)-1H-imidazol-4-yl]-6-(2-methoxyethoxy)nicotinamide]
viability at 1 µM (HCT-116 cells [1]; Homo sapiens): 46.7% | viability at 1 µM (HT-29 cells; Homo sapiens): 27% | viability at 1 µM (FaDu cells; Homo sapiens): 36.7%

O=C(Nc1cc(-c2ccccc2)n[nH]1)c1cn(Cc2cccc(Cl)c2)cn1 [Example 259]
IC50 (HCT-116 cells [1]): 0.92 µmol/L | IC50 (HT-29 cells): 0.74 µmol/L | IC50 (FaDu cells): 0.74 µmol/L

COCCOc1ccc(C(=O)Nc2cn(Cc3cccc(Cl)c3)cn2)cc1 [Example 265, N-[1-(3-Chlorobenzyl)-1H-imidazol-4-yl]-4-(2-methoxyethoxy)benzamide]
viability at 1 µM (HCT-116 cells [1]; Homo sapiens): 41.7% | viability at 1 µM (HT-29 cells; Homo sapiens): 33.1% | viability at 1 µM (FaDu cells; Homo sapiens): 41.2%

Cc1cccc(C(=O)Nc2cn(Cc3cccc(Cl)c3)cn2)n1 [Example 279]
viability at 1 µM (HCT-116 cells [1]; Homo sapiens): 87.4% | viability at 1 µM (HT-29 cells; Homo sapiens): 42.3% | viability at 1 µM (FaDu cells; Homo sapiens): 47.2%

O=C(Nc1cn(Cc2cccc(Cl)c2)cn1)c1cncc(Br)c1 [Example 283]
viability at 1 µM (HCT-116 cells [1]; Homo sapiens): 75.6% | viability at 1 µM (HT-29 cells; Homo sapiens): 44.7% | viability at 1 µM (FaDu cells; Homo sapiens): 50%

COc1ccc(C(=O)Nc2cn(Cc3ccc(C(F)(F)F)cc3)cn2)cc1OC [Example 287]
(100%-inhibition rate of cell proliferation) at 1 μmol/L, HCT-116 (HCT-116 cells [1]): 95.8% | (100%-inhibition rate of cell proliferation) at 1 μmol/L, HT-29 (HT-29 cells): 124% | (100%-inhibition rate of cell proliferation) at 1 μmol/L, FaDu (FaDu cells): 53.0%

COc1ccc(C(=O)Nc2cn(Cc3cccc(C)c3)cn2)cc1OC [Example 291]
(100%-inhibition rate of cell proliferation) at 1 μmol/L, HCT-116 (HCT-116 cells [1]): 70.8% | (100%-inhibition rate of cell proliferation) at 1 μmol/L, HT-29 (HT-29 cells): 37.1% | (100%-inhibition rate of cell proliferation) at 1 μmol/L, FaDu (FaDu cells): 37.8%

COc1ccc(C(=O)Nc2cn(Cc3ccc(C)c(Cl)c3)cn2)cc1OC [Example 295]
(100%-inhibition rate of cell proliferation) at 1 μmol/L, HCT-116 (HCT-116 cells [1]): 83.0% | (100%-inhibition rate of cell proliferation) at 1 μmol/L, HT-29 (HT-29 cells): 37.8% | (100%-inhibition rate of cell proliferation) at 1 μmol/L, FaDu (FaDu cells): 31.8%

COc1ccc(C(=O)Nc2cn(Cc3cccc(Oc4ccccc4)c3)cn2)cc1OC [Example 297]
(100%-inhibition rate of cell proliferation) at 1 μmol/L, HCT-116 (HCT-116 cells [1]): 56.6% | (100%-inhibition rate of cell proliferation) at 1 μmol/L, HT-29 (HT-29 cells): 33.7% | (100%-inhibition rate of cell proliferation) at 1 μmol/L, FaDu (FaDu cells): 31.4%
